{"source": "patent US20070082327A1", "about": "“Cellular phenotype” (Cytokinetics, Inc. A Delaware Corporation, priority 2005, published 2007)", "key": {"60 cancer cell lines": {"tested_on": "60 cancer cell lines", "conditions": "NCI 60 cell line data; cited from earlier work"}, "SKOV3 cells": {"tested_on": "SKOV3 cells", "assay": "time-lapse tracking of cell fate, GFP-Histone 2B SKOV3 cells", "format": "cell-based", "conditions": "SKOV3, 20 random cells tracked, 0.5 μM Taxol, FIG. 3a", "method": "FIG. 3a is a bar graph showing the percentages of 20 random cells tracked to assess their fate: complete mitosis, death from mitosis, decondensation (uncertain fate) and death from decondensation.\nThe data used to construct the chart was obtained by time-lapse movies of cells marked with GFP-Histone 2B. Movies were collected on cell populations treated with two different mp2 stimulus compounds at various concentrations, as well as on DMSO-treated (control) cells, cells treated with 0.5 μM Taxol, and cells treated with compounds that produce a rice phenotype. […] It is believed that most of these cells would eventually die."}}}
{"smiles": "CC(=O)O[C@H]1C(=O)[C@@]2(C)[C@H]([C@H](OC(=O)c3ccccc3)[C@]3(O)C[C@H](OC(=O)[C@H](O)[C@@H](NC(=O)c4ccccc4)c4ccccc4)C(C)=C1C3(C)C)[C@]1(OC(C)=O)CO[C@@H]1C[C@@H]2O", "note": "[Taxol, paclitaxel]", "values": [{"measurement": "potency differences between cell types", "setting": "60 cancer cell lines", "result": "over 3 orders of magnitude"}, {"measurement": "cell fate after treatment", "setting": "SKOV3 cells", "result": "the highest number of cells die directly from mitosis"}]}
